We go through 17 molecules from patent US20260193264A1, “BENZOYPARAZINE PYRAZINES AND THEIR USES” (FOGHORN THERAPEUTICS INC., priority 2022, published 2026).

Assay [1] deals with T1, HiBiT-BRM fusion protein in stable HeLa cell line (Homo sapiens, UniProt P51531).
T1 construct: expressed in transfected cells
The assay can be described thus: HiBiT-BRM cell-based degradation assay (Nano-Glo HiBiT Lytic Detection, 24 h). More on the design: DC50: scale not given here. The conditions noted are these: HeLa HiBiT-BRM cells; for DC50: read-out: BRM HiBit Degradation IC50; for BRM HiBit Degradation Maximum (%): top dose 30 μM. The essentials: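 Percent degradation was scaled between DMSO-treated cells and cells given 2 μM of a known BRM/BRG1 degrader. Readout was NanoBiT luminescence after lytic detection. HeLa cells stably expressing HiBiT-BRM were dosed for 24 h, 10 points, 3-fold steps from 30 μM final, in duplicate.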
In general terms: With HiBiT, luminescence reflects the tagged protein that the partner subunit can reach.

In assay [2] the target is T2, HiBit-BRG1 fusion protein in stable HeLa cell line expressing HiBit-BRG1 and LgBit (Homo sapiens, UniProt P51532).
T2 construct: expressed in transfected cells
The assay can be described thus: HiBiT-BRG1 cell-based degradation assay (Nano-Glo HiBiT, 24 h). The conditions noted are these: HeLa HiBit-BRG1/LgBit cells; for DC50: read-out: BRMG1 HiBit Degradation IC50; for Dmax / BRG1 HiBit Degradation Maximum (%): top dose 30 μM; for Dmax: read-out: BRG1 HiBit Degradation Maximum (%). The essentials:
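Degradation calculated from NanoBiT luminescence relative to DMSO-treated cells (high) and cells given 2 μM known BRM/BRG1 degrader (low). HeLa cells stably expressing HiBiT-BRG1 plus LgBiT were exposed to compound for 24 h before lytic HiBiT detection.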

T1 sequence (P51531 whole entry, the tested form may be a part): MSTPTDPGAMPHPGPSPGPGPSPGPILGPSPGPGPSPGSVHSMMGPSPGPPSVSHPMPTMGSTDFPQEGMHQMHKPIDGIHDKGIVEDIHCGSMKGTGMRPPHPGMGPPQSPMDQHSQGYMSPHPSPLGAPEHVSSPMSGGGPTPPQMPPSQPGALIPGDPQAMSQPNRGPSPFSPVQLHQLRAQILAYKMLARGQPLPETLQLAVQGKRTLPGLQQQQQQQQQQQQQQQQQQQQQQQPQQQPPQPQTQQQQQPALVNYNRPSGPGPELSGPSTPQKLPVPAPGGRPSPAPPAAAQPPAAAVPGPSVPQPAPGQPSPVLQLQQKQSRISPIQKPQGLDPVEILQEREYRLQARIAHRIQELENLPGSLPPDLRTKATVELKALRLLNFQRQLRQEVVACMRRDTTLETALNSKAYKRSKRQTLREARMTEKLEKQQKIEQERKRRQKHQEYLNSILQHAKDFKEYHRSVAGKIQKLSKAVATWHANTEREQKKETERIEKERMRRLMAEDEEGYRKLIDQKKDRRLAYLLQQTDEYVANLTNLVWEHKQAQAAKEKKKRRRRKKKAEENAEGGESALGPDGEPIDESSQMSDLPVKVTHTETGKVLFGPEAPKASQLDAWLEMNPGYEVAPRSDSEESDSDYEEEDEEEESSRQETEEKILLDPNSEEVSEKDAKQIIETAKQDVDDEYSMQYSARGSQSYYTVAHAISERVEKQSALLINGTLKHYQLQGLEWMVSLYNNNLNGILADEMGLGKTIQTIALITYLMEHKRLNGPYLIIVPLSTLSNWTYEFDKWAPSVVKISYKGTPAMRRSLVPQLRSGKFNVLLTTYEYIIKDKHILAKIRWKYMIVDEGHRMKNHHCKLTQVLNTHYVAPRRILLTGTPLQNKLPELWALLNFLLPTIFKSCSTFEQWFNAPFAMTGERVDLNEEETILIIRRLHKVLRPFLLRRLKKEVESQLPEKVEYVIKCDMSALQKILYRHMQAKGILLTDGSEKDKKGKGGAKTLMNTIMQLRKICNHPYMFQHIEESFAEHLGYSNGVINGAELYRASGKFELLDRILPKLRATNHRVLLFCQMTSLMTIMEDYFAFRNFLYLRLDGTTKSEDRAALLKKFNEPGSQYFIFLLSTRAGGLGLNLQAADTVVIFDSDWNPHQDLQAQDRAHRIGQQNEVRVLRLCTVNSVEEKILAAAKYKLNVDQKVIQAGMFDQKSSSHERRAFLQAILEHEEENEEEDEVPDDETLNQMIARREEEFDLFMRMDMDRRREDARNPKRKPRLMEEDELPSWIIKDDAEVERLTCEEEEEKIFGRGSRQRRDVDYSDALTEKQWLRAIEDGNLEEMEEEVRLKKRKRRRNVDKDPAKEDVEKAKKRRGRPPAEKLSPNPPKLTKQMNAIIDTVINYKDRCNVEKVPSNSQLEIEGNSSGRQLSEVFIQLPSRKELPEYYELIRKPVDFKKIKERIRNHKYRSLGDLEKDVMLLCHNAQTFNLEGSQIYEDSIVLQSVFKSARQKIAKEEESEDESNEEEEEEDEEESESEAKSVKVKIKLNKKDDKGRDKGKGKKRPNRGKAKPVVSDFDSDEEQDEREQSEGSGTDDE
T2 sequence (P51532 whole entry, the tested form may be a part): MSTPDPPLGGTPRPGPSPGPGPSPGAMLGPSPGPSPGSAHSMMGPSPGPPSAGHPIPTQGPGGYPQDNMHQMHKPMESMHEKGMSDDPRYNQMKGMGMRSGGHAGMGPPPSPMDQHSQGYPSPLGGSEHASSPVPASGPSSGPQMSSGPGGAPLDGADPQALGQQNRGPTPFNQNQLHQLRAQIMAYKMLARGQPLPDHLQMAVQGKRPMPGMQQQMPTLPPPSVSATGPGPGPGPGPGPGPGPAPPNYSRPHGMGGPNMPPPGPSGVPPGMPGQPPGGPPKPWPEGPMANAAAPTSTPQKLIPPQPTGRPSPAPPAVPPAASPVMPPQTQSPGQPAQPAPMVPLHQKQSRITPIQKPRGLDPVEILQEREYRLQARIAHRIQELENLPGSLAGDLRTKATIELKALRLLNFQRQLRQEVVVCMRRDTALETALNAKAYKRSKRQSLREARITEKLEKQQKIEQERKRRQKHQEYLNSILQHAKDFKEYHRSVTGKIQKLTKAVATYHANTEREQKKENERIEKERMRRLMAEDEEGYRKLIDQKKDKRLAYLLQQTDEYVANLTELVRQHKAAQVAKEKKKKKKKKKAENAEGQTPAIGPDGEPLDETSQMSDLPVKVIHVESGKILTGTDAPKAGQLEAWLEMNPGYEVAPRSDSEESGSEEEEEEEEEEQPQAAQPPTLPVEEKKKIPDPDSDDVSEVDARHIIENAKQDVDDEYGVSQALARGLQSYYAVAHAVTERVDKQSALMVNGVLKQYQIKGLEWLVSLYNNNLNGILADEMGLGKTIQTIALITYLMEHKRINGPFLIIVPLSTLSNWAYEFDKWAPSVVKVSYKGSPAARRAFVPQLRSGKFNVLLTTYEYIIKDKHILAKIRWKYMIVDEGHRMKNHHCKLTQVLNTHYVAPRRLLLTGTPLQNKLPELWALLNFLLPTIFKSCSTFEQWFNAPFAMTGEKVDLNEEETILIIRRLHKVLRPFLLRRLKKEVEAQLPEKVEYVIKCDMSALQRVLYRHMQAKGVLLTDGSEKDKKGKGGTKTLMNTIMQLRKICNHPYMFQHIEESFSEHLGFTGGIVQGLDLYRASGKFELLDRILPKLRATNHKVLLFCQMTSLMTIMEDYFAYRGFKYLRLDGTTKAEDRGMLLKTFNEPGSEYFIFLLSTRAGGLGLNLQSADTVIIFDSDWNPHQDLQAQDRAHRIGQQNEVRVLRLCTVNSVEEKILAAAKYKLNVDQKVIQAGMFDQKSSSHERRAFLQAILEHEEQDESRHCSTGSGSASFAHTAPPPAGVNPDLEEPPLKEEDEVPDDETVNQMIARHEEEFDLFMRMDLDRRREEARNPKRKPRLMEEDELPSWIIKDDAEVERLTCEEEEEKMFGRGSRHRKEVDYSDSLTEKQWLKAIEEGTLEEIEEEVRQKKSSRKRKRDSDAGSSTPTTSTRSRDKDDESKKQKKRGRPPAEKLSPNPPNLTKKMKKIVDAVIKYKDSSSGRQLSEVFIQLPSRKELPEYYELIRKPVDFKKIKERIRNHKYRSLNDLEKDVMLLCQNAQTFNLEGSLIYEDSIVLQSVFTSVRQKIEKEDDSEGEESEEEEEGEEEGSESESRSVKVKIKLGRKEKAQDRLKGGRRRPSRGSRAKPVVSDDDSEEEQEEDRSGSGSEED

`Cc1ncsc1-c1ccc([C@H](C)NC(=O)[C@@H]2C[C@@H](O)CN2C(=O)[C@@H](c2cc(N3CC4(CC(c5ccc6cc(-c7ccccc7O)nnc6c5)C4)C3)no2)C(C)C)cc1` [Compound 34]: in assay [1], the DC50 is < 10 nM and the “BRM HiBit Degradation Maximum (%)” value was “A (“A” indicates maximum degradation ≥75%)”. Further, in assay [2], the DC50 is > 10 nM and the Dmax is > 75%.

In the case of `Cc1ncsc1-c1ccc([C@H](C)NC(=O)[C@@H]2C[C@@H](O)CN2C(=O)[C@H](c2cc(-c3cnc(N4CC(c5cc(Cl)c6cc(-c7ccccc7O)nnc6c5)C4)nc3)no2)C(C)C)cc1` [Compound 35], in assay [1], the DC50 is > 100 nM and the “BRM HiBit Degradation Maximum (%)” value is listed as “B (“B” indicates maximum degradation ≥50%)”. Moreover, the Dmax in assay [2] was < 50%.

As for `Cc1ncsc1-c1ccc([C@H](C)NC(=O)[C@@H]2C[C@@H](O)CN2C(=O)[C@@H](c2cc(-c3cnc(N4CC(c5cc(Cl)c6cc(-c7ccccc7O)nnc6c5)C4)nc3)no2)C(C)C)cc1` [Compound 36], in assay [1], the DC50 is > 10 nM and the “BRM HiBit Degradation Maximum (%)” value is given as “B (“B” indicates maximum degradation ≥50%)”. In assay [2], the Dmax is < 50%.

Regarding `Cc1ncsc1-c1ccc([C@H](C)NC(=O)[C@@H]2C[C@@H](O)CN2C(=O)[C@H](c2cc(-c3ccnc(N4CCC(c5ccc6nnc(-c7ccccc7O)cc6c5)CC4)n3)no2)C(C)C)cc1` [Compound 37], the “BRM HiBit Degradation Maximum (%)” value in assay [1] is “C (“C” indicates maximum degradation <50%)”. Moreover, the Dmax in assay [2] was < 50%.

On to `Cc1ncsc1-c1ccc([C@H](C)NC(=O)[C@@H]2C[C@@H](O)CN2C(=O)[C@@H](c2cc(-c3ccnc(N4CCC(c5ccc6nnc(-c7ccccc7O)cc6c5)CC4)n3)no2)C(C)C)cc1` [Compound 38], for which, in assay [1], the DC50 is > 100 nM and the “BRM HiBit Degradation Maximum (%)” value is reported as “A (“A” indicates maximum degradation ≥75%)”. In addition, the Dmax in assay [2] is < 50%.

As for `Cc1ncsc1-c1ccc([C@H](C)NC(=O)[C@@H]2C[C@@H](O)CN2C(=O)[C@H](c2cc(-c3cnc(N4CCN(c5ccc6cc(-c7ccccc7O)nnc6c5)CC4)nc3)no2)C(C)C)cc1` [Compound 39], in assay [1], the “BRM HiBit Degradation Maximum (%)” value is “C (“C” indicates maximum degradation <50%)”. In addition, in assay [2], the Dmax is < 50%.

Turning to `Cc1ncsc1-c1ccc([C@H](C)NC(=O)[C@@H]2C[C@@H](O)CN2C(=O)[C@@H](c2cc(-c3cnc(N4CCN(c5ccc6cc(-c7ccccc7O)nnc6c5)CC4)nc3)no2)C(C)C)cc1` [Compound 40], in assay [1], the DC50 was < 10 nM and the “BRM HiBit Degradation Maximum (%)” value is listed as “A (“A” indicates maximum degradation ≥75%)”. Further, in assay [2], the Dmax was < 50%.

Consider `Cc1ncsc1-c1ccc([C@H](C)NC(=O)[C@@H]2C[C@@H](O)CN2C(=O)[C@H](c2cc(-c3cnc(N4CCC(c5ccc6nnc(-c7ccccc7O)cc6c5)CC4)nc3)no2)C(C)C)cc1` [Compound 41], for which the “BRM HiBit Degradation Maximum (%)” value in assay [1] is reported as “C (“C” indicates maximum degradation <50%)”. Also, the Dmax in assay [2] is < 50%.

Regarding `Cc1ncsc1-c1ccc([C@H](C)NC(=O)[C@@H]2C[C@@H](O)CN2C(=O)[C@@H](c2cc(-c3cnc(N4CCC(c5ccc6nnc(-c7ccccc7O)cc6c5)CC4)nc3)no2)C(C)C)cc1` [Compound 42], in assay [1], the DC50 is > 10 nM and the “BRM HiBit Degradation Maximum (%)” value is “A (“A” indicates maximum degradation ≥75%)”. The Dmax in assay [2] was < 50%.

As to `Cc1ncsc1-c1ccc([C@H](C)NC(=O)[C@@H]2C[C@@H](O)CN2C(=O)[C@H](c2cc(-c3cnc(N4CC(c5ccc6nnc(-c7ccccc7O)cc6c5Cl)C4)nc3)no2)C(C)C)cc1` [Compound 43], in assay [1], the DC50 is > 100 nM and the “BRM HiBit Degradation Maximum (%)” value is “A (“A” indicates maximum degradation ≥75%)”. In assay [2], the Dmax is < 50%.

With `Cc1ncsc1-c1ccc([C@H](C)NC(=O)[C@@H]2C[C@@H](O)CN2C(=O)[C@@H](c2cc(-c3cnc(N4CC(c5ccc6nnc(-c7ccccc7O)cc6c5Cl)C4)nc3)no2)C(C)C)cc1` [Compound 44], in assay [1], the DC50 is > 10 nM and the “BRM HiBit Degradation Maximum (%)” value is “A (“A” indicates maximum degradation ≥75%)”. Besides, the Dmax in assay [2] is < 50%.

As for `Cc1ncsc1-c1ccc([C@H](C)NC(=O)[C@@H]2C[C@@H](O)CN2C(=O)[C@@H](c2cc(N3CCC(C(=O)N4CC(c5ccc6cc(-c7ccccc7O)nnc6c5)C4)CC3)no2)C(C)C)cc1` [Compound 45], in assay [1], the DC50 is < 10 nM and the “BRM HiBit Degradation Maximum (%)” value is on record as “A (“A” indicates maximum degradation ≥75%)”. In assay [2], the DC50 is > 10 nM and the Dmax was > 75%.

`Cc1ncsc1-c1ccc([C@H](C)NC(=O)[C@@H]2C[C@@H](O)CN2C(=O)[C@H](c2cc(-c3cnc(N4CCN(c5ccc6cc(-c7ccccc7O)nnc6c5)CC4)nc3)no2)C(C)C)cc1` [Compound 46]: in assay [1], the DC50 was > 100 nM and the “BRM HiBit Degradation Maximum (%)” value is listed as “A (“A” indicates maximum degradation ≥75%)”. In assay [2], the “BRG1 HiBit Degradation Maximum (%)” value is “C (“C” indicates maximum degradation <50%)”.

For the molecule `Cc1ncsc1-c1ccc([C@H](C)NC(=O)[C@@H]2C[C@@H](O)CN2C(=O)[C@@H](c2cc(-c3cnc(N4CCN(c5ccc6cc(-c7ccccc7O)nnc6c5)CC4)nc3)no2)C(C)C)cc1` [Compound 47], the “BRM HiBit Degradation Maximum (%)” value in assay [1] is recorded as “A (“A” indicates maximum degradation ≥75%)”. In addition, the “BRG1 HiBit Degradation Maximum (%)” value in assay [2] is listed as “C (“C” indicates maximum degradation <50%)”.

On to `Cc1ncsc1-c1ccc([C@H](C)NC(=O)[C@@H]2C[C@@H](O)CN2C(=O)[C@@H](c2cc(N3CC4(CC(c5ccc6nnc(-c7ccccc7O)cc6c5)C4)C3)no2)C(C)C)cc1` [Compound 48, (2S,4R)-4-hydroxy-1-((R)-2-(3-(6-(3-(2-hydroxyphenyl)cinnolin-6-yl)-2-azaspiro[3.3]heptan-2-yl)isoxazol-5-yl)-3-methylbutanoyl)-N-((S)-1-(4-(4-methylthiazol-5-yl)phenyl)ethyl)pyrrolidine-2-carboxamide], for which, in assay [1], the DC50 was < 10 nM and the “BRM HiBit Degradation Maximum (%)” value is reported as “A (“A” indicates maximum degradation ≥75%)”. Further, in assay [2], the DC50 was < 10 nM and the Dmax is > 75%.

Turning to `Cc1ncsc1-c1ccc([C@H](C)NC(=O)[C@@H]2C[C@@H](O)CN2C(=O)[C@@H](c2cc(-c3cnc(N4CC[C@H](c5ccc6nnc(-c7ccccc7O)cc6c5)C4)nc3)no2)C(C)C)cc1` [Compound 49, (2S,4R)-4-hydroxy-1-((R)-2-(3-(2-((R)-3-(3-(2-hydroxyphenyl)cinnolin-6-yl)pyrrolidin-1-yl)pyrimidin-5-yl)isoxazol-5-yl)-3-methylbutanoyl)-N-((S)-1-(4-(4-methylthiazol-5-yl)phenyl)ethyl)pyrrolidine-2-carboxamide], in assay [1], the DC50 is < 10 nM and the “BRM HiBit Degradation Maximum (%)” value was “A (“A” indicates maximum degradation ≥75%)”. Further, in assay [2], the DC50 was < 10 nM and the Dmax was > 75%.

For `Cc1ncsc1-c1ccc([C@H](C)NC(=O)[C@@H]2C[C@@H](O)CN2C(=O)[C@@H](c2cc(-c3cnc(N4CC[C@@H](c5ccc6nnc(-c7ccccc7O)cc6c5)C4)nc3)no2)C(C)C)cc1` [Compound 50, (2S,4R)-4-hydroxy-1-((R)-2-(3-(2-((S)-3-(3-(2-hydroxyphenyl)cinnolin-6-yl)pyrrolidin-1-yl)pyrimidin-5-yl)isoxazol-5-yl)-3-methylbutanoyl)-N-((S)-1-(4-(4-methylthiazol-5-yl)phenyl)ethyl)pyrrolidine-2-carboxamide], in assay [1], the DC50 is < 10 nM and the “BRM HiBit Degradation Maximum (%)” value is given as “A (“A” indicates maximum degradation ≥75%)”. Besides, the Dmax in assay [2] was > 50%.
